Some test systems named below: M14 melanoma; NCI-H23 lung; EKVX NSCLC; K-562 leukemia; HT29 colon; A549 NSCLC; NCI/ADR-RES ovarian; HOP-92 NSCLC; RXF 393 renal; SN12C renal; OVCAR-8 ovarian.
What all share (assay): growth of human tumour cells (NCI), 48 h

The text below walks through data of PubChem BioAssay (NCI).

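Five concentrations, 48 hours, 96-well plates. TGI denotes the concentration required for complete inhibition of growth.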

As to `O=C(CCc1ccc(O)cc1)c1c(O)cc(O)cc1OC1OC(CO)C(O)C(O)C1O` (stereo not drawn), the TGI with M14 melanoma, in the assay on NCI-H23 lung, in the assay on EKVX NSCLC, in the assay with K-562 leukemia, with HT29 colon and in the assay with A549 NSCLC was greater than 100 µM throughout. Further, the TGI in the assay on NCI/ADR-RES ovarian and in the assay with HOP-92 NSCLC was greater than 100 µM throughout.
As for `c1ccc(N=c2snc(-c3ccccc3)s2)cc1`, the TGI in the assay with M14 melanoma, with RXF 393 renal, in the assay with K-562 leukemia, in the assay on SN12C renal, in the assay with A549 NSCLC and in the assay on OVCAR-8 ovarian was greater than 100 µM each time.
As for `O=C1CC(c2ccc([N+](=O)[O-])cc2)C2(C(=O)NC(=S)NC2=O)C(c2ccc([N+](=O)[O-])cc2)C1` (stereo not drawn), the TGI with M14 melanoma is 45.7 µM; with NCI-H23 lung, 64.1 µM; in the assay with EKVX NSCLC, 82.9 µM; in the assay with K-562 leukemia it was greater than 100 µM; with HT29 colon, greater than 100 µM; with SN12C renal, 53.4 µM. Moreover, the TGI in the assay on A549 NSCLC was 50.4 µM; with NCI/ADR-RES ovarian, greater than 100 µM; in the assay on OVCAR-8 ovarian, 45.1 µM; with HOP-92 NSCLC, greater than 100 µM.
Consider `CC(=O)CC(=O)c1cc2c(=O)oc(C)cc2oc1=O`, for which the TGI in the assay with M14 melanoma, in the assay on NCI-H23 lung, in the assay with EKVX NSCLC, in the assay with RXF 393 renal, in the assay on K-562 leukemia and in the assay with HT29 colon was greater than 37.5 µM throughout. Moreover, the TGI in the assay on SN12C renal, in the assay with A549 NSCLC, in the assay with NCI/ADR-RES ovarian and in the assay on OVCAR-8 ovarian was greater than 37.5 µM each time.
Take `CSc1c(C(=O)Nc2ccc(C)cc2)c(N)[nH]c(=O)c1C#N`: the TGI in the assay on M14 melanoma, in the assay on NCI-H23 lung, in the assay with EKVX NSCLC, with RXF 393 renal, with K-562 leukemia and in the assay with HT29 colon was greater than 100 µM throughout. Also, the TGI with SN12C renal, with A549 NSCLC, in the assay with NCI/ADR-RES ovarian and with OVCAR-8 ovarian was greater than 100 µM in each case.
Take `O=C1C(Cl)N(c2ccccc2)C1c1c[nH]c2ccccc12` (stereo not drawn): the TGI in the assay on M14 melanoma, with NCI-H23 lung, in the assay with EKVX NSCLC, in the assay on RXF 393 renal, with K-562 leukemia and in the assay with HT29 colon was greater than 100 µM in each case. Further, the TGI in the assay on SN12C renal, in the assay with A549 NSCLC, in the assay on OVCAR-8 ovarian and in the assay on HOP-92 NSCLC was greater than 100 µM in each case.
Consider `C[C@@H]1C[C@H](O)[C@]2(O)O[C@@H]3C[C@@]4(C=O)[C@@H](CC=C5[C@@H]4CC[C@]4(C)[C@@H](C6=CC(=O)OC6)CC[C@]54O)C[C@H]3O[C@@H]2O1`, for which the TGI is 0.817 µM in the assay with M14 melanoma; 0.0207 µM in the assay on NCI-H23 lung; 0.215 µM with EKVX NSCLC; greater than 100 µM with K-562 leukemia; 0.25 µM in the assay on HT29 colon; 0.131 µM in the assay on SN12C renal. In addition, the TGI in the assay on A549 NSCLC is 0.097 µM; in the assay with NCI/ADR-RES ovarian it was 0.215 µM; with OVCAR-8 ovarian it was 0.22 µM; with HOP-92 NSCLC, 0.174 µM.
For the compound `CC(C)(CO)N1C(=O)c2ccccc2C1(O)c1ccc(Cl)cc1` (stereo not drawn), the TGI with M14 melanoma, in the assay on NCI-H23 lung, in the assay on EKVX NSCLC, in the assay on RXF 393 renal, in the assay on K-562 leukemia and in the assay on HT29 colon was greater than 100 µM each time. Moreover, the TGI with SN12C renal, with A549 NSCLC, in the assay on NCI/ADR-RES ovarian and with OVCAR-8 ovarian was greater than 100 µM each time.
Consider `O=C(O[C@H](/C=C/c1ccccc1)P1(=O)N(Cc2ccccc2)[C@@H]2CCCC[C@H]2N1Cc1ccccc1)c1ccccc1`, for which the TGI was greater than 100 µM in the assay with M14 melanoma; 7.43 µM with NCI-H23 lung; 68 µM with EKVX NSCLC; greater than 100 µM with K-562 leukemia; 18.4 µM with HT29 colon; 9.68 µM in the assay on SN12C renal. For the same compound, the TGI in the assay with A549 NSCLC was greater than 100 µM; in the assay on NCI/ADR-RES ovarian, 43.1 µM; in the assay on OVCAR-8 ovarian, greater than 100 µM; in the assay with HOP-92 NSCLC it was 6.72 µM.
On to `COc1ccc(NC2Oc3cc4c(cc3C(c3cc(OC)c(OC)c(OC)c3)C2C)OCO4)cc1` (stereo not drawn), for which the TGI in the assay with M14 melanoma was greater than 45.1 µM; with NCI-H23 lung it was greater than 89.7 µM; in the assay with EKVX NSCLC, 34.1 µM; in the assay with RXF 393 renal, greater than 100 µM; in the assay with K-562 leukemia, greater than 100 µM; in the assay with HT29 colon, greater than 100 µM. Moreover, the TGI is greater than 81.5 µM in the assay on SN12C renal, greater than 61.9 µM in the assay with A549 NSCLC, greater than 45.4 µM in the assay on OVCAR-8 ovarian and 33.7 µM in the assay on HOP-92 NSCLC.
As to `Cc1cccc(N(CCC#N)S(=O)(=O)c2ccccc2)c1`, the TGI in the assay with M14 melanoma, in the assay with NCI-H23 lung, in the assay on EKVX NSCLC, in the assay on K-562 leukemia, with HT29 colon and in the assay on SN12C renal was greater than 100 µM each time. Further, the TGI with A549 NSCLC, in the assay with NCI/ADR-RES ovarian, in the assay on OVCAR-8 ovarian and with HOP-92 NSCLC was greater than 100 µM throughout.
For the compound `CN(C)c1ccc(/C(Br)=C2\OC(=O)c3ccccc32)cc1`, the TGI in the assay with M14 melanoma, with NCI-H23 lung, in the assay with EKVX NSCLC, in the assay on K-562 leukemia, in the assay with HT29 colon and in the assay with SN12C renal was greater than 100 µM in each case. Further, the TGI in the assay on A549 NSCLC, in the assay with NCI/ADR-RES ovarian and in the assay with OVCAR-8 ovarian was greater than 100 µM throughout.
In the case of `C[C@]12CC/C(=N\O)C=C1CC[C@@H]1[C@@H]2CC[C@]2(C)C(=N/O)/C(=C/c3cccnc3)C[C@@H]12`, the TGI was 75 µM in the assay on M14 melanoma; greater than 100 µM in the assay with NCI-H23 lung; 79.5 µM in the assay on EKVX NSCLC; 27.7 µM in the assay on K-562 leukemia; 79.5 µM with HT29 colon; 43.5 µM in the assay on SN12C renal. Also, the TGI with A549 NSCLC is 59.8 µM; in the assay with NCI/ADR-RES ovarian it was greater than 100 µM; in the assay on OVCAR-8 ovarian it was 80.3 µM; in the assay with HOP-92 NSCLC, 63.5 µM.
Take `CC(C)c1c(P(=O)(c2ccccc2)c2ccccc2)n(C)c2ccccc12`: the TGI in the assay on M14 melanoma, in the assay on NCI-H23 lung, in the assay with EKVX NSCLC, in the assay on K-562 leukemia, in the assay with HT29 colon and in the assay on SN12C renal was greater than 100 µM each time. In addition, the TGI in the assay on A549 NSCLC, with NCI/ADR-RES ovarian, in the assay with OVCAR-8 ovarian and with HOP-92 NSCLC was greater than 100 µM throughout.
